# In ChEMBL document CHEMBL1770127, “2-(2-Aminothiazol-4-yl)pyrrolidine-based tartrate diamides as potent, selective and orally bioavailable TACE inhibitors” (Bioorg Med Chem Lett, 2011):
# Test system: not listed separately
# Assay: Plasma concentration in Sprague-Dawley rat at 10 mg/kg, po measured after 6 hrs by LC/MS/MS analysis
# Assay type: ADME, organism-based
# Design: dose 10 mg/kg, route oral
# Conditions: not given
row,concentration at 6 h [µM],Compound
1,0.086,C[C@@H](NC(=O)[C@H](O)[C@@H](O)C(=O)N1CCC[C@@H]1c1ccn(C)n1)c1ccc(-n2cccn2)cc1
2,0.247,C[C@@H](NC(=O)[C@H](O)[C@@H](O)C(=O)N1CCC[C@@H]1c1csc(N)n1)c1ccc(-n2cccn2)cc1
3,2.54,CNc1nc([C@H]2CCCN2C(=O)[C@H](O)[C@@H](O)C(=O)N[C@H](C)c2ccc(-n3cccn3)cc2)cs1
4,5.97,CCNc1nc([C@H]2CCCN2C(=O)[C@H](O)[C@@H](O)C(=O)N[C@H](C)c2ccc(-n3cccn3)cc2)cs1
5,5.4,CCCNc1nc([C@H]2CCCN2C(=O)[C@H](O)[C@@H](O)C(=O)N[C@H](C)c2ccc(-n3cccn3)cc2)cs1
6,12.3,CC(C)Nc1nc([C@H]2CCCN2C(=O)[C@H](O)[C@@H](O)C(=O)N[C@H](C)c2ccc(-n3cccn3)cc2)cs1
7,3.54,C[C@@H](NC(=O)[C@H](O)[C@@H](O)C(=O)N1CCC[C@@H]1c1csc(NC2CCC2)n1)c1ccc(-n2cccn2)cc1

# Molecular target: T1, Disintegrin and metalloproteinase domain-containing protein 17 (Homo sapiens, UniProt P78536)
# T1 sequence (P78536 whole entry, the tested form may be a part): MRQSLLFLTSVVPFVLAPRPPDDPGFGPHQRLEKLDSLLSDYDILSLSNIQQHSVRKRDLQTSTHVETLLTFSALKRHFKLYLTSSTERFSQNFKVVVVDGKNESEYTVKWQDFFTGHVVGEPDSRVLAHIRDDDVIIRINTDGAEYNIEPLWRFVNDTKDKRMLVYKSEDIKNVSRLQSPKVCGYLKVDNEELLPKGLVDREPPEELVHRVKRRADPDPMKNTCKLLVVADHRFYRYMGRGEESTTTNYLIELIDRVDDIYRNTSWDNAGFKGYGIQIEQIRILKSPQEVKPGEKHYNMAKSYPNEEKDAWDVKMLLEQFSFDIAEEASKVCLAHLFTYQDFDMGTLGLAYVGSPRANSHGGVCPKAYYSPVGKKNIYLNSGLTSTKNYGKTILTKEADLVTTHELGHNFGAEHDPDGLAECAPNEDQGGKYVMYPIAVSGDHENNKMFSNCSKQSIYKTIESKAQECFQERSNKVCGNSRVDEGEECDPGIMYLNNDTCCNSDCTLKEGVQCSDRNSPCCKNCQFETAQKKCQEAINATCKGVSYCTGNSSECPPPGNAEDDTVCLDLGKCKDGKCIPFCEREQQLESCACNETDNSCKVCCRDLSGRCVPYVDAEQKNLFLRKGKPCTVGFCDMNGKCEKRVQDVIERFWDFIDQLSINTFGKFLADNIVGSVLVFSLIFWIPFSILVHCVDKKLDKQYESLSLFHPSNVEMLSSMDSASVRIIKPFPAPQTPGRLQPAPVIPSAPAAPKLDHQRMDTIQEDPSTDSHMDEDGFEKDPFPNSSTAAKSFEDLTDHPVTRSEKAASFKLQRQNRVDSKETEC
# Assay: Inhibition of TACE
# Conditions: not given
row,Ki [nM],Compound
1,0.4,C[C@@H](NC(=O)[C@H](O)[C@@H](O)C(=O)N1CCC[C@]1(C)c1cccc(Cl)c1)c1ccc(-n2cccn2)cc1
2,0.5,C[C@@H](NC(=O)[C@H](O)[C@@H](O)C(=O)N1CC=C[C@@H]1c1cccc(Cl)c1)c1ccc(-n2cccn2)cc1
3,2.6,COc1cc2c(cc1OC)[C@H](c1ccc(Cl)cc1)N(C(=O)[C@H](O)[C@@H](O)C(=O)N[C@H](C)c1ccc(-n3cccn3)cc1)CC2
4,38,COc1cc2c(cc1OC)[C@H](c1ccccc1)CN(C(=O)[C@H](O)[C@@H](O)C(=O)N[C@H](C)c1ccc(-n3cccn3)cc1)CC2
5,5,C[C@@H](NC(=O)[C@H](O)[C@@H](O)C(=O)N1CCC[C@@H]1c1cc[nH]n1)c1ccc(-n2cccn2)cc1
6,4,C[C@@H](NC(=O)[C@H](O)[C@@H](O)C(=O)N1CCC[C@@H]1c1ccn(C)n1)c1ccc(-n2cccn2)cc1
7,10,C[C@@H](NC(=O)[C@H](O)[C@@H](O)C(=O)N1CCC[C@@H]1c1nccs1)c1ccc(-n2cccn2)cc1
8,10,Cc1nc([C@H]2CCCN2C(=O)[C@H](O)[C@@H](O)C(=O)N[C@H](C)c2ccc(-n3cccn3)cc2)cs1
9,6,C[C@@H](NC(=O)[C@H](O)[C@@H](O)C(=O)N1CCC[C@@H]1c1csc(N)n1)c1ccc(-n2cccn2)cc1
10,7,CNc1nc([C@H]2CCCN2C(=O)[C@H](O)[C@@H](O)C(=O)N[C@H](C)c2ccc(-n3cccn3)cc2)cs1
11,7,CCNc1nc([C@H]2CCCN2C(=O)[C@H](O)[C@@H](O)C(=O)N[C@H](C)c2ccc(-n3cccn3)cc2)cs1
12,4,CCCNc1nc([C@H]2CCCN2C(=O)[C@H](O)[C@@H](O)C(=O)N[C@H](C)c2ccc(-n3cccn3)cc2)cs1
13,17,CC(C)Nc1nc([C@H]2CCCN2C(=O)[C@H](O)[C@@H](O)C(=O)N[C@H](C)c2ccc(-n3cccn3)cc2)cs1
14,4,C[C@@H](NC(=O)[C@H](O)[C@@H](O)C(=O)N1CCC[C@@H]1c1csc(NC2CCC2)n1)c1ccc(-n2cccn2)cc1
15,1,C[C@@H](NC(=O)[C@H](O)[C@@H](O)C(=O)N1CCC[C@@H]1c1csc(Nc2ccccc2F)n1)c1ccc(-n2cccn2)cc1
16,2,C[C@@H](NC(=O)[C@H](O)[C@@H](O)C(=O)N1CCC[C@@H]1c1csc(Nc2cccnc2)n1)c1ccc(-n2cccn2)cc1
17,65,C[C@@H](NC(=O)[C@H](O)[C@@H](O)C(=O)N1CCC[C@@H]1c1csc(N(C)C)n1)c1ccc(-n2cccn2)cc1
18,39,C[C@@H](NC(=O)[C@H](O)[C@@H](O)C(=O)N1CCC[C@@H]1c1csc(N2CCCCC2)n1)c1ccc(-n2cccn2)cc1
19,2,CNc1nc([C@H]2CCCN2C(=O)[C@H](O)[C@@H](O)C(=O)N[C@H](C)c2ccc(-n3cccn3)cc2)c(C)s1

# Molecular target: T1, Disintegrin and metalloproteinase domain-containing protein 17
# Assay: Inhibition of TACE by cell based assay
# Conditions: not given
row,IC50 [nM],Compound
1,4290,C[C@@H](NC(=O)[C@H](O)[C@@H](O)C(=O)N1CCC[C@@H]1c1csc(N)n1)c1ccc(-n2cccn2)cc1
2,5800,CNc1nc([C@H]2CCCN2C(=O)[C@H](O)[C@@H](O)C(=O)N[C@H](C)c2ccc(-n3cccn3)cc2)cs1
3,5110,CCNc1nc([C@H]2CCCN2C(=O)[C@H](O)[C@@H](O)C(=O)N[C@H](C)c2ccc(-n3cccn3)cc2)cs1
4,4480,CCCNc1nc([C@H]2CCCN2C(=O)[C@H](O)[C@@H](O)C(=O)N[C@H](C)c2ccc(-n3cccn3)cc2)cs1
5,6680,CC(C)Nc1nc([C@H]2CCCN2C(=O)[C@H](O)[C@@H](O)C(=O)N[C@H](C)c2ccc(-n3cccn3)cc2)cs1
6,2150,C[C@@H](NC(=O)[C@H](O)[C@@H](O)C(=O)N1CCC[C@@H]1c1csc(NC2CCC2)n1)c1ccc(-n2cccn2)cc1
7,1140,C[C@@H](NC(=O)[C@H](O)[C@@H](O)C(=O)N1CCC[C@@H]1c1csc(Nc2ccccc2F)n1)c1ccc(-n2cccn2)cc1
8,5550,C[C@@H](NC(=O)[C@H](O)[C@@H](O)C(=O)N1CCC[C@@H]1c1csc(Nc2cccnc2)n1)c1ccc(-n2cccn2)cc1
9,2220,CNc1nc([C@H]2CCCN2C(=O)[C@H](O)[C@@H](O)C(=O)N[C@H](C)c2ccc(-n3cccn3)cc2)c(C)s1

# Test system: not listed separately
# Assay: AUC in Sprague-Dawley rat at 10 mg/kg, po measured within 6 hrs after post-dosing by LC/MS/MS analysis
# Assay type: ADME, organism-based
# Design: time < 6 hr, dose 10 mg/kg, route oral
# Conditions: plasma
row,AUC at 6 h [µM·h],Compound
1,1.47,C[C@@H](NC(=O)[C@H](O)[C@@H](O)C(=O)N1CCC[C@]1(C)c1cccc(Cl)c1)c1ccc(-n2cccn2)cc1
2,0.461,C[C@@H](NC(=O)[C@H](O)[C@@H](O)C(=O)N1CC=C[C@@H]1c1cccc(Cl)c1)c1ccc(-n2cccn2)cc1
3,0.578,C[C@@H](NC(=O)[C@H](O)[C@@H](O)C(=O)N1CCC[C@@H]1c1cc[nH]n1)c1ccc(-n2cccn2)cc1
4,2.92,C[C@@H](NC(=O)[C@H](O)[C@@H](O)C(=O)N1CCC[C@@H]1c1ccn(C)n1)c1ccc(-n2cccn2)cc1
5,2.28,C[C@@H](NC(=O)[C@H](O)[C@@H](O)C(=O)N1CCC[C@@H]1c1csc(N)n1)c1ccc(-n2cccn2)cc1
6,30.7,CNc1nc([C@H]2CCCN2C(=O)[C@H](O)[C@@H](O)C(=O)N[C@H](C)c2ccc(-n3cccn3)cc2)cs1
7,52,CCNc1nc([C@H]2CCCN2C(=O)[C@H](O)[C@@H](O)C(=O)N[C@H](C)c2ccc(-n3cccn3)cc2)cs1
8,48.3,CCCNc1nc([C@H]2CCCN2C(=O)[C@H](O)[C@@H](O)C(=O)N[C@H](C)c2ccc(-n3cccn3)cc2)cs1
9,115,CC(C)Nc1nc([C@H]2CCCN2C(=O)[C@H](O)[C@@H](O)C(=O)N[C@H](C)c2ccc(-n3cccn3)cc2)cs1
10,31.4,C[C@@H](NC(=O)[C@H](O)[C@@H](O)C(=O)N1CCC[C@@H]1c1csc(NC2CCC2)n1)c1ccc(-n2cccn2)cc1
11,0.13,C[C@@H](NC(=O)[C@H](O)[C@@H](O)C(=O)N1CCC[C@@H]1c1csc(Nc2ccccc2F)n1)c1ccc(-n2cccn2)cc1
12,1.96,C[C@@H](NC(=O)[C@H](O)[C@@H](O)C(=O)N1CCC[C@@H]1c1csc(N2CCCCC2)n1)c1ccc(-n2cccn2)cc1
13,5.44,CNc1nc([C@H]2CCCN2C(=O)[C@H](O)[C@@H](O)C(=O)N[C@H](C)c2ccc(-n3cccn3)cc2)c(C)s1
